{"source": "patent US7966056B2", "about": "“Magnetic resonance imaging method and compounds for use in the method” (GE Healthcare AS, priority 2002, dated 2011)", "key": {"[1]": {"tested_on": "mice", "details": "intravenous injection in mice; cited from earlier work"}, "[2]": {"tested_on": "anaesthetised dogs", "test": "cardiovascular effects in anaesthetised dogs with and without dobutamine stress (Example 7)", "format": "in vivo", "details": "dobutamine alone, 5-20 μg/kg/min infusion", "method": "The cardiovascular effects of MnHPTA with various amounts of Ca^2+ (0, 0.5 and 1 mol Ca^2+ per mol Mn^2+) were investigated in the presence and absence of dobutamine induced pharmacological stress in anaesthetised dogs.\nAnaesthesia was induced with pentobarbital (12-25 mg/kg i.v.) and fentanyl (1.5-2.5 μg/kg i.v.), followed by a continuous i.v. infusion of fentanyl (20 μg/kg/h and pentobarbital (10 mg/kg/h). Artificial ventilation was carried out by room air through a tracheal tube, aimed at achieving normal physiological blood gas values. A catheter was introduced through the right femoral artery for measurement of SAP. A microtip pressure transducer catheter (Millar) was placed into the left ventricle through the carotid artery for measurements of LVdP/dt. A Swan-Ganz catheter was introduced through the right femoral vein for measuring PAP (pulmonary arterial pressure). A 3-lead ECG was continuously-monitored. An ultrasonic flow probe was placed around the left femoral artery for flow measurement. Venflon cannulas were introduced into the left and right jugular veins for contrast agent injections and dobutamine infusions, respectively. […]\nSystolic, diastolic and mean systemic arterial pressure (SYS, DIA MEAN), LVdP/dt, femoral arterial flow, mean PAP (pulmonary arterial pressure), HR (heart rate) and ECG were continuously monitored and stored by a computer system."}, "[3]": {"test": "maximum solubility in water", "format": "physicochemical", "from_the_text": "In the method according to the invention the contrast agent is preferably administered in a bolus injection although slow injection or infusion of the contrast agent is also suitable. For Mn^2+ complexes with low formation constants, e.g. in the area 10^3 to 10^8 there might be a risk that the release of Mn^2+ from the complex may still be sufficiently rapid to induce cardiotoxic reactions in the body. To avoid such toxic reactions, the contrast agent comprising such complexes could be provided in solutions comprising low concentrations of such complexes. If it is preferred to provide the contrast agent in dry form, e.g. as a lyophilized powder, for on site preparation of the solution for injection, complexes with properties that avoid the preparation of high concentration solutions provide an additional advantage. For example the sodium salt of MnTPP, Na3MP3O10, has a limited solubility, thus prohibiting injections of highly concentrated solutions of manganese. […] This injection volume additionally prohibits rapid bolus injections of sodium salts of MnTPP."}, "[4]": {"tested_on": "myocardium", "procedure": "In an anaesthesed pig, heart rate and systolic/diastolic blood pressure were monitored.\nDobutamine was infused at a dose of 10 μg/kg body weight/min and increased by 10 μg/kg/min every second minute until a PRP (pressure-rate product) of a factor 2.5 was achieved.\n10 μmol/kg body weight of MnTPP was injected in a bolus during 4 seconds.\nThe pig was subjected to imaging at 1.5 T in a clinical scanner. Short axis view images of the myocardium were acquired 45 minutes post injection."}}}
{"molecule": "[Ba+2].[Cl-].[Cl-]", "note": "[BaCl2]", "values": [{"measurement": "LD50", "setting": "[1]", "value": 19.2, "unit": "mg/kg"}]}
{"molecule": "[Ca+2].[Cl-].[Cl-]", "note": "[CaCl2]", "values": [{"measurement": "LD50", "setting": "[1]", "value": 42.2, "unit": "mg/kg"}]}
{"molecule": "CC(CCc1ccc(O)cc1)NCCc1ccc(O)c(O)c1", "note": "(stereo not drawn) [Dobutamine, dobutamine]", "values": [{"measurement": "increase in dP/dt max", "setting": "[2]", "value": 4, "unit": "times"}]}
{"molecule": "O=P([O-])([O-])OP(=O)([O-])OP(=O)([O-])[O-].[Mn+2].[Na+].[Na+].[Na+]", "note": "[sodium salt of MnTPP]", "values": [{"measurement": "maximum solubility in water", "setting": "[3]", "value": 23, "unit": "mmol/L"}]}
{"molecule": "manganese triphosphate [MnTPP]", "values": [{"measurement": "clinical signs represented by changes in physiological parameters", "setting": "[4]; 10 μmol/kg body weight bolus during 4 seconds, dobutamine stress, anaesthetised pig", "value": "No clinical signs represented by changes in physiological parameters were observed"}, {"measurement": "short axis view MR images of the myocardium", "setting": "[4]; 10 μmol/kg, 1.5 T, 45 minutes post injection, pig", "value": "visualised an underperfused area"}]}
